Experimental data as given in US7074789B2, “Kinase inhibitors” (Amgen Inc., priority 1999, dated 2006).

Key:
Assay type in all cases: biochemical
Itk = biological target: T1, Itk (Homo sapiens, UniProt Q08881); test: Kinase inhibition assay (33P transfer), Itk; conditions: read-out: Itk-1
T1 construct: Kinases are expressed as either kinase domains or full length constructs; made in house
T1 sequence (Q08881 1-620): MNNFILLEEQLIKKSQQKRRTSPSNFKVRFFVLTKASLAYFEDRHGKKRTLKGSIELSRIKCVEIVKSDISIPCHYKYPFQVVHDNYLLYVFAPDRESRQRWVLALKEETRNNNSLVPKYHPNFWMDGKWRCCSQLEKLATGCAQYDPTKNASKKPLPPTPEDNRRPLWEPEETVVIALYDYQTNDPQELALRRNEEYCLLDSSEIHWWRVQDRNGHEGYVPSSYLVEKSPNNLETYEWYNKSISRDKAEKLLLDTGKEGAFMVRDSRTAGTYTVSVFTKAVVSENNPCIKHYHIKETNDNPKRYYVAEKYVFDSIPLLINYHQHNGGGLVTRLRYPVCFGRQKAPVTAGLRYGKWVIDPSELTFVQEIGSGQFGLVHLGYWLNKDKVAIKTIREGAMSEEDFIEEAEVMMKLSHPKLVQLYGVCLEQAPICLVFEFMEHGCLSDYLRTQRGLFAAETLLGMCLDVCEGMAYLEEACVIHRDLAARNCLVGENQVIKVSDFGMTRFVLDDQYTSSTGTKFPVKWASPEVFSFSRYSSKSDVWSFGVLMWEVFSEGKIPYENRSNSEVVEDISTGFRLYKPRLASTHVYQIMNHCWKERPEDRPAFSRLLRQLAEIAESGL
Outline: (§1)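 Using immobilised substrate copolymers (poly(Glu,Tyr) 4:1; poly(Arg,Ser) 3:1) and [33P]ATP, purified fusion kinases were allowed to react; plates were then rinsed in 0.5% phosphoric acid and counted in a scintillation detector. Half-maximal inhibition of label transfer defines IC50.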

IGFR-1 = biological target: T2, IGFR-1 (Homo sapiens, UniProt P08069); test: Kinase inhibition assay, IGFR-1 (Table 2); conditions: Table 2, kinase inhibition class
T2 construct: Kinases are expressed as either kinase domains or full length constructs; made in house
T2 sequence (P08069 31-1367): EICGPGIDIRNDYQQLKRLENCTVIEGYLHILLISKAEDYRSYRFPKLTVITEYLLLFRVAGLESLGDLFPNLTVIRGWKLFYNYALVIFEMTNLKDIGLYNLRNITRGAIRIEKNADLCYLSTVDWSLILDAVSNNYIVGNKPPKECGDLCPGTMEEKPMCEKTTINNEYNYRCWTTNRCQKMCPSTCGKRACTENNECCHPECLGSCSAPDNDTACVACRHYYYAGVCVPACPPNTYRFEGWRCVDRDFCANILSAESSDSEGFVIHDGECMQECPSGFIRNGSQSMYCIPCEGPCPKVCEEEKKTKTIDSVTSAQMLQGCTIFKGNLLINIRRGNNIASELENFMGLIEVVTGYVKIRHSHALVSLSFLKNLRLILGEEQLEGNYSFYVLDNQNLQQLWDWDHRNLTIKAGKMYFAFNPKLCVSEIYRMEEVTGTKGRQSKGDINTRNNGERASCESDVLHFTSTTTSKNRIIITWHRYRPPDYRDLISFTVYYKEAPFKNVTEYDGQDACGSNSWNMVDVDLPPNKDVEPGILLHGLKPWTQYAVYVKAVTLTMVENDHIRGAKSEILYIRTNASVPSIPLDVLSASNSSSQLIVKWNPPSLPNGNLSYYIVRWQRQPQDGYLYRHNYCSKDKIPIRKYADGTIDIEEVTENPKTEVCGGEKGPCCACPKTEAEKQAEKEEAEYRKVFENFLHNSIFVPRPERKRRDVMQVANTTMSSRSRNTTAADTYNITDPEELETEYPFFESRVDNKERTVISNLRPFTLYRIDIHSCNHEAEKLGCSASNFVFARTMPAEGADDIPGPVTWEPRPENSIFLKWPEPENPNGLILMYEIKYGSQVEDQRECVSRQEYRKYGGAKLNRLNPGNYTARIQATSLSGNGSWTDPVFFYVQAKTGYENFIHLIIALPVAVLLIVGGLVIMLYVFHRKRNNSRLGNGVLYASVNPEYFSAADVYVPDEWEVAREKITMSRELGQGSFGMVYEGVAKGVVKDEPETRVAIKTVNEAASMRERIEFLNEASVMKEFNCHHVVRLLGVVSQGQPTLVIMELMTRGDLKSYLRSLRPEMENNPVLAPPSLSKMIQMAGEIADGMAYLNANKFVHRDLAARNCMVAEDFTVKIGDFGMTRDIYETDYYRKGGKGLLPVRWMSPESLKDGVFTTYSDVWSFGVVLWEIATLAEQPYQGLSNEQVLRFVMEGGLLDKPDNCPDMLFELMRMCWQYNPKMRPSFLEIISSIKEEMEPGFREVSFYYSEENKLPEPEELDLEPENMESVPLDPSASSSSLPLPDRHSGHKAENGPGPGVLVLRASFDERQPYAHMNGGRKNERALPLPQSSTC

EGFR = biological target: T3, EGFR (Homo sapiens, UniProt P00533); test: Kinase inhibition assay (33P transfer), EGFR; conditions: Table 2, kinase inhibition class; read-out: EGFR-1
T3 construct: Kinases are expressed as either kinase domains or full length constructs; made in house
T3 sequence (P00533 25-1210, species assumed): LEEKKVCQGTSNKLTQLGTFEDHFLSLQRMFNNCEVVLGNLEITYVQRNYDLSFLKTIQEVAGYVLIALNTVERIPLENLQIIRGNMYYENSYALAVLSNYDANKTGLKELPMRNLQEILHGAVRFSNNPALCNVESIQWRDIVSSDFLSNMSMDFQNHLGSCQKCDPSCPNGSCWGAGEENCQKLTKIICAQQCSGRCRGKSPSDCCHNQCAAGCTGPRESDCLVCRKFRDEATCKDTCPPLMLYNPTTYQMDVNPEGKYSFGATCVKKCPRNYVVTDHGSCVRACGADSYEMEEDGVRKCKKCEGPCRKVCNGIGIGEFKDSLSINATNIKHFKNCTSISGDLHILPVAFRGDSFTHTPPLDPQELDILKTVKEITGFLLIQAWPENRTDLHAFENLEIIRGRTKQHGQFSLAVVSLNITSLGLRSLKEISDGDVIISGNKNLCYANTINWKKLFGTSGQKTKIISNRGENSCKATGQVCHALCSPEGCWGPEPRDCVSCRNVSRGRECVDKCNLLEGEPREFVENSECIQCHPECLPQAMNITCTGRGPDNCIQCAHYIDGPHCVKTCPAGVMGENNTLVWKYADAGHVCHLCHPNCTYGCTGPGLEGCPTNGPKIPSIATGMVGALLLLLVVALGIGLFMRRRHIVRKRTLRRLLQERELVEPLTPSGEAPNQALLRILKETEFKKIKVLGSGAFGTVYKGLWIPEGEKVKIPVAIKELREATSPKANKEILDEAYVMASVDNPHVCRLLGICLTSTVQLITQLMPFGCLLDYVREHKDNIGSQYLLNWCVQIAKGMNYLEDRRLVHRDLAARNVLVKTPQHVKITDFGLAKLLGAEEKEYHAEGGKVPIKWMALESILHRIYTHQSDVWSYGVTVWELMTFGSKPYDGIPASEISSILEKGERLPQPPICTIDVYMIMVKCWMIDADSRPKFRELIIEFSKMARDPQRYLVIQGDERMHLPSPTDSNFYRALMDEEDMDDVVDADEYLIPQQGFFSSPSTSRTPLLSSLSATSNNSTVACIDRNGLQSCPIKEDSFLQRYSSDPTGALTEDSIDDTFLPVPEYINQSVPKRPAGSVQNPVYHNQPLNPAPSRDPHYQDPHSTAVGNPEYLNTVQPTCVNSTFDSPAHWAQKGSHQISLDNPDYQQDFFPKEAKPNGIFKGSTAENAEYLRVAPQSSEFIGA
Outline: as §1

PDGFRB = biological target: T4, PDGFRB (Homo sapiens, UniProt P09619); test: Kinase inhibition assay (33P transfer), PDGFRB; conditions: read-out: PDGFRB-1
T4 construct: Kinases are expressed as either kinase domains or full length constructs; made in house

AKT = biological target: T5, AKT (Homo sapiens, UniProt Q9Y243); test: Kinase inhibition assay (33P transfer), AKT; conditions: Table 2, kinase inhibition class; read-out: AKT3-1
T5 construct: Kinases are expressed as either kinase domains or full length constructs; made in house
Outline: (§2)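 Measured by scintillation: radiolabelled phosphate added by tagged recombinant kinases to poly(Glu,Tyr) 4:1 or poly(Arg,Ser) 3:1 attached to microtiter wells, counted once free label was washed away with 0.5% phosphoric acid.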

Lck = biological target: T6, Lck (Homo sapiens, UniProt P06239); test: Kinase inhibition assay (33P transfer), Lck; conditions: read-out: Lck-1
T6 construct: Kinases are expressed as either kinase domains or full length constructs; made in house
Outline: as §2

Kdr = biological target: T7, Kdr (Homo sapiens, UniProt P35968); test: Kinase inhibition assay (33P transfer), Kdr; conditions: read-out: KDR-1
T7 construct: Kinases are expressed as either kinase domains or full length constructs; made in house
Outline: as §2

c-Met = biological target: T8, c-Met (Homo sapiens, UniProt P08581); test: Kinase inhibition assay (33P transfer), c-Met; conditions: Table 2, kinase inhibition class; read-out: Met-1
T8 construct: Kinases are expressed as either kinase domains or full length constructs; made in house
Outline: as §1

ErbB2 = biological target: T9, ErbB2 (Homo sapiens, UniProt P04626); test: Kinase inhibition assay (33P transfer), ErbB2; conditions: read-out: ErbB2-2
T9 construct: Kinases are expressed as either kinase domains or full length constructs; made in house
T9 sequence (P04626 23-1255, species assumed): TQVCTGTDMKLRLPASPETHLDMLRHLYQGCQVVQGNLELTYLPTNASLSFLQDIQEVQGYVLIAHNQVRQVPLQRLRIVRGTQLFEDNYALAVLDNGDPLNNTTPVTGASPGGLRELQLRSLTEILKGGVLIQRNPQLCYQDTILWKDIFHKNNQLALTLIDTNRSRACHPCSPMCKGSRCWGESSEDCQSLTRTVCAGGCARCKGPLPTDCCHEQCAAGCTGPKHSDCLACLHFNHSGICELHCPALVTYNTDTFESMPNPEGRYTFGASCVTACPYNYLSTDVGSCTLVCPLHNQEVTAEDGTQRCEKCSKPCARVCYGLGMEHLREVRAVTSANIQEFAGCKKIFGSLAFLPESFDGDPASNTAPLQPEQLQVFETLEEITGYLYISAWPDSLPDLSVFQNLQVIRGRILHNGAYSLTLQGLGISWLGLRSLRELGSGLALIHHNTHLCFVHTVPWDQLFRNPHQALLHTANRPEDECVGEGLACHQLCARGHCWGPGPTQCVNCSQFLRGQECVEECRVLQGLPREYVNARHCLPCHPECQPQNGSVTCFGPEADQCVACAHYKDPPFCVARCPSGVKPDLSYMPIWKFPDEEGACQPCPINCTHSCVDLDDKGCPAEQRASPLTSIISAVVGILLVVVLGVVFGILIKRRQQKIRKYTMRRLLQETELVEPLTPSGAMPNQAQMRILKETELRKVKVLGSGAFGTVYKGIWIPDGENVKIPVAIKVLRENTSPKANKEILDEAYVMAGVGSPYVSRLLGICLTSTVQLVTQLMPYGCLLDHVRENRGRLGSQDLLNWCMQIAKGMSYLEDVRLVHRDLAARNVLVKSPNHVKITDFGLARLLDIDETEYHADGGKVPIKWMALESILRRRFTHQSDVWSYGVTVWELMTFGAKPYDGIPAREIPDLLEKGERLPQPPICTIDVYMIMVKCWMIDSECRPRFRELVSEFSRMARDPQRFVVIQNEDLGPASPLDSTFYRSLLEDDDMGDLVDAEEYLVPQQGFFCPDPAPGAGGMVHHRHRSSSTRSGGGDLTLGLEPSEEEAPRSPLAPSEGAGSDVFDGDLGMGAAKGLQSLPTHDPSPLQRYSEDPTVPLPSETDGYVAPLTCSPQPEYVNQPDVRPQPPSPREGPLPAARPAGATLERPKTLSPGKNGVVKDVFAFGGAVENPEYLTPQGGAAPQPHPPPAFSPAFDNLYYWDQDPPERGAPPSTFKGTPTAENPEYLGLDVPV
From the text: The inhibitor compounds described herein are screened in the following manner. Kinases suitable for use in the following protocol to determine kinase activity of the compounds described herein include, -but are not limited to: Lck, Lyn, Src, Fyn, Syk, Zap-70, Itk, Tec, Btk, EGFR, ErbB2, Kdr, Flt-1, Flt-3, Tek, c-Met, InsR, and AKT.
Kinases are expressed as either kinase domains or full length constructs fused to glutathione S-transferase (GST) or polyHistidine tagged fusion proteins in either E. colior Baculovirus-High Five expression systems. They are purified to near homogeneity by affinity chromatography essentially as previously described (Lehr et al., 1996; Gish et al., 1995). In some instances, kinases are co-expressed or mixed with purified or partially purified regulatory polypeptides prior to measurement of activity.
Kinase activity and inhibition are measured essentially by established protocols (Braunwalder et al., 1996). Briefly, The transfer of ^33PO4 from ATP to the synthetic substrates poly(Glu, Tyr) 4:1 or poly(Arg, Ser) 3:1 attached to the bioactive surface of microtiter plates serves as the basis to evaluate enzyme activity. After an incubation period, the amount of phosphate transferred is measured by first washing the plate with 0.5% phosphoric acid, adding liquid scintillant, and then counting in a liquid scintillation detector. The IC50 is determined by the concentration of compound that causes a 50% reduction in the amount of […] incorporated onto the substrate bound to the plate.

Zap-70 = biological target: T10, Zap-70 (Homo sapiens, UniProt P43403); test: Kinase inhibition assay (33P transfer), Zap-70; conditions: read-out: Zap-1
T10 construct: Kinases are expressed as either kinase domains or full length constructs; made in house
T10 sequence (P43403 1-619): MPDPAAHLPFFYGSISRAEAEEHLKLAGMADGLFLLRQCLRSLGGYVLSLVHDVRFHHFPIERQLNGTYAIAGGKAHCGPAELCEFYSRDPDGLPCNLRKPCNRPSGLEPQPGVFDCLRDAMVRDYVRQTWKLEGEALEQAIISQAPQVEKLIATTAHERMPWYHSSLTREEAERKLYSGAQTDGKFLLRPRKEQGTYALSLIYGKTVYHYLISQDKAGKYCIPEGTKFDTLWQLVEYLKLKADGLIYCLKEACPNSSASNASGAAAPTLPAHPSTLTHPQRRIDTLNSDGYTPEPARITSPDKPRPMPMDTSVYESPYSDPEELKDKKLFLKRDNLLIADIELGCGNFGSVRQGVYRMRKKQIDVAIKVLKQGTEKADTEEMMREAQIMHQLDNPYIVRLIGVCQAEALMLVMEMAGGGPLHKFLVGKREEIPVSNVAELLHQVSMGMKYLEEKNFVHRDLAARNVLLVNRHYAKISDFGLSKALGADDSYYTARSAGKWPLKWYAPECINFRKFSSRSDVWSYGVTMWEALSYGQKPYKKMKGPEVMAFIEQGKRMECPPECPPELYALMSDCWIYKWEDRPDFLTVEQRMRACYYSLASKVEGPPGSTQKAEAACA
Outline: as §2

Tek = biological target: T11, Tek (Homo sapiens, UniProt Q02763); test: Kinase inhibition assay (33P transfer), Tek; conditions: read-out: Tek-1
T11 construct: Kinases are expressed as either kinase domains or full length constructs; made in house
T11 sequence (Q02763 23-1124, species assumed): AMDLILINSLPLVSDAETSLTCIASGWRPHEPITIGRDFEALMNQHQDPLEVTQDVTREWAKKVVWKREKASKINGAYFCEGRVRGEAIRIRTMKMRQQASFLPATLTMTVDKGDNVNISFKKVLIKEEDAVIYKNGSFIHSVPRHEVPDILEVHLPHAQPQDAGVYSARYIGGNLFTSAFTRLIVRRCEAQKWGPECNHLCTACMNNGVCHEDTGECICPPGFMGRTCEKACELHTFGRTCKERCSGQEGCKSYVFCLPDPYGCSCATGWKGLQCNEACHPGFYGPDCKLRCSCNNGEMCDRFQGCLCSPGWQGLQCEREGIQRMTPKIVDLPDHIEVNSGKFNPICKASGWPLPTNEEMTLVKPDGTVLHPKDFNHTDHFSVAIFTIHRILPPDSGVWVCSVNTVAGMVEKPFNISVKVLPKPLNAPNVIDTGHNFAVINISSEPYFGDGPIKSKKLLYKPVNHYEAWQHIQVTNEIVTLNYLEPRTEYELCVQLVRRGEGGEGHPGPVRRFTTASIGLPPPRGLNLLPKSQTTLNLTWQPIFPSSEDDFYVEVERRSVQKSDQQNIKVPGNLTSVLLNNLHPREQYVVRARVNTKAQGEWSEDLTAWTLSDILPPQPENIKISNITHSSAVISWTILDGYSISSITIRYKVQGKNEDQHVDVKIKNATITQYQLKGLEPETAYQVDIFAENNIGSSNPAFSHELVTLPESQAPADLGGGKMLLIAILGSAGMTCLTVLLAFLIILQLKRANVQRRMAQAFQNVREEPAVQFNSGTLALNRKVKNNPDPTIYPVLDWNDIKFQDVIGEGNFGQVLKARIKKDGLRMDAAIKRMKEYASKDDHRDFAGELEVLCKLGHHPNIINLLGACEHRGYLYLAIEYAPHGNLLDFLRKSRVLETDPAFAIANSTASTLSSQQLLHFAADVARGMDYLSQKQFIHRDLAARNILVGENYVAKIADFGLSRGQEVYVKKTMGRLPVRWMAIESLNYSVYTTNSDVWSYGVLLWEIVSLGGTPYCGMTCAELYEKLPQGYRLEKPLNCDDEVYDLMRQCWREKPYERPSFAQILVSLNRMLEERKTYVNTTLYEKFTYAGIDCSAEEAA
Outline: as §1

Structure (SMILES) | IC50 (Itk) | IC50 (IGFR-1) | IC50 (EGFR) | IC50 (PDGFRB) | IC50 (AKT) | IC50 (Lck) | IC50 (Kdr) | IC50 (c-Met) | IC50 (ErbB2) | IC50 (Zap-70) | IC50 (Tek)
COc1cc(C)c(Nc2ncnc(-n3c(N)nc4ccccc43)n2)cc1OC [Compound 524] | 9.27 to 11.9 µM | < 1.06 µM | > 11.9 µM | – | > 11.9 µM | 6.36 to 9.27 µM | 1.06 to 6.36 µM | 6.36 to 9.27 µM | 6.36 to 9.27 µM | > 11.9 µM | > 11.9 µM
COC(=O)c1cc(OC)c(OC)cc1Nc1ncnc(-n2c(N)nc3ccccc32)n1 [Compound 476] | > 10.7 µM | 0.949 to 5.7 µM | > 10.7 µM | – | > 10.7 µM | > 10.7 µM | 8.31 to 10.7 µM | > 10.7 µM | 5.7 to 8.31 µM | > 10.7 µM | > 10.7 µM
NC(=O)c1ccccc1Nc1ncnc(-n2c(N)nc3ccccc32)n1 [Compound 473] | > 13 µM | 6.93 to 10.1 µM | > 13 µM | – | > 13 µM | 6.93 to 10.1 µM | 10.1 to 13 µM | 10.1 to 13 µM | 10.1 to 13 µM | 10.1 to 13 µM | > 13 µM
COc1cc(Nc2ncnc(Nc3cc(-c4ccc(C)cc4)n[nH]3)n2)cc(OC)c1OC [Compound 521] | 0.923 to 5.54 µM | < 0.923 µM | 0.923 to 5.54 µM | – | > 10.4 µM | < 0.923 µM | < 0.923 µM | < 0.923 µM | 0.923 to 5.54 µM | > 10.4 µM | > 10.4 µM

Continued, values first:

IC50 (Itk) | IC50 (IGFR-1) | IC50 (EGFR) | IC50 (PDGFRB) | IC50 (AKT) | IC50 (Lck) | IC50 (Kdr) | IC50 (c-Met) | IC50 (ErbB2) | IC50 (Zap-70) | IC50 (Tek) | Structure (SMILES)
> 12.2 µM | > 12.2 µM | < 1.08 µM | > 12.2 µM | > 12.2 µM | > 12.2 µM | 9.46 to 12.2 µM | > 12.2 µM | 1.08 to 6.49 µM | > 12.2 µM | – | CN(c1cccc(Cl)c1)c1ncnc(Nc2ccc(CC(=O)O)cc2)n1 [Compound 705]
> 13.5 µM | > 13.5 µM | > 13.5 µM | > 13.5 µM | > 13.5 µM | > 13.5 µM | > 13.5 µM | > 13.5 µM | > 13.5 µM | > 13.5 µM | – | Cc1ccc2c(c1)CCCN2c1ncnc(NCc2ccccn2)n1 [Compound 769]
> 12.7 µM | > 12.7 µM | > 12.7 µM | > 12.7 µM | > 12.7 µM | > 12.7 µM | > 12.7 µM | > 12.7 µM | > 12.7 µM | > 12.7 µM | – | Cc1ccc2c(c1)CCCN2c1ncnc(NCCN2CCOCC2)n1 [Compound 776]
> 9.23 µM | 0.821 to 4.92 µM | 4.92 to 7.18 µM | – | 7.18 to 9.23 µM | 0.821 to 4.92 µM | 0.821 to 4.92 µM | 4.92 to 7.18 µM | 4.92 to 7.18 µM | > 9.23 µM | > 9.23 µM | COc1cc(Nc2ncnc(Nc3cc(-c4cccc(C(F)(F)F)c4)n[nH]3)n2)cc(OC)c1OC [Compound 1000]
> 10.8 µM | 0.963 to 5.78 µM | > 10.8 µM | 5.78 to 8.42 µM | > 10.8 µM | 0.963 to 5.78 µM | > 10.8 µM | > 10.8 µM | – | > 10.8 µM | – | COc1ccc(Nc2ncnc(Nc3cccc(-c4ccnc(C)n4)c3)n2)cc1OC [Compound 789]
